Experimental findings from US20190307783A1, “USE OF ANTIVIRALS TO INHIBIT PROTOZOAN VIRUSES” (priority 2016, published 2019) are described below.

Where “and” joins values, the source holds several entries; their conditions need not be identical. Equal values may be shown once.

Data set [1] deals with LRV1+ Lgy M4147 parasites. The experiment in a line: Intracellular 2CMA-TP accumulation and retention in parasites (HPLC). The data set is classed as in vitro ADME, Leishmania guyanensis. To be noted: for Intracellular 2CMA-TP concentration: 18 hours, n=4. From the text:
To account for the relative sensitivity of Lgy LRV1 to 2CMA compared to the insensitivity of LRV1 RDRP activity to inhibition by 2CMA-TP, we hypothesized that parasites take up and activate 2CMA, accumulating high 2CMA-TP concentrations. We first identified an HPLC protocol capable of resolving both synthetic 2CMA-TP and a smaller peak we presume to be 2CMA-DP from natural ribonucleotides and the internal standard, dGTP (FIG. 23A and FIG. 23B). Standard mixtures of known concentration were used to generate a standard curve relating peak area to 2CMA-TP amounts (FIG. 30). We then tested several protocols for extracting parasite nucleotides and determined that extraction with 1:1 acetonitrile:water performed best. Using this protocol, we compared the nucleotide profiles of LRV1+ Lgy grown in the presence or absence of 10 μM extracellular 2CMA for 18 hours, a time chosen because it corresponds to about two rounds of parasite replication. Under these conditions, we observed a peak co-eluting with synthetic 2CMA-TP that was absent from untreated parasites (FIG. 25B), establishing the parasite's capacity to phosphorylate 2CMA.
We then measured steady-state levels of intracellular 2CMA-TP following incubation of late-log-phase parasites with 2CMA for 18 hours. To determine the intracellular concentration of 2CMA-TP under these conditions, we measured the average volume of the parasites (roughly 23 fL). […] Over this range of concentrations, internal 2CMA-TP levels exceeded external 2CMA concentrations by 40- to 80-fold (FIG. 26A and FIG. 26B), attesting to the potency of the parasite's purine salvage pathway.
Cultures of WT or GFP-expressing LRV1+ Lgy M4147 were seeded at 2×10^5 cells/mL and analyzed when they reached early, mid, or late log phase. From each sample, one aliquot was analyzed by light scattering on a flow-cytometer, while another was immobilized by treatment with 20 mM sodium azide and imaged by spinning-disk confocal microscopy {Ellenberger, 1987}. Cell volumes were calculated using a custom ImageJ script {Schindelin, 2012}. A standard curve relating forward scattering intensity to measured volume was developed and used to estimate metabolite concentrations (FIG. 29).
For drug metabolism studies, 10^8 late-log phase parasites in 5 mL of Schneider's medium were treated with indicated drug concentrations for 20 hours. For accumulation assays, 10^8 cells were harvested immediately. In ‘washout’ experiments, one 5 mL culture was grown for each replicate of each time point. These cultures were spun down, resuspended in drug-free medium, centrifuged again, and finally suspended in 5 mL drug-free Schneider's medium. After 2, 4, or 8 hours, nucleotides were extracted from 10^8 parasites from individual washed cultures and analyzed by HPLC.
For each sample, cells were collected by centrifugation at 2200×g, 4° C. for 5 minutes, re-suspended in 1 mL ice-cold PBS and re-centrifuged. The cell pellet was gently re-suspended in 100 μL ice-cold 0.5×PBS plus 7 nmol dGTP as a recovery and elution standard. […] Cells were immediately lysed by rapidly re-suspending in 900 μL ice-cold 5:4 acetonitrile:water mixture {Au, 1989} and vortexing continuously for 5 min at 4° C. Insoluble debris was pelleted at 16,000×g for 5 minutes and the clarified extract was transferred to a fresh tube. The solvent was removed by evaporation in a SAVANT SpeedVac concentrator (Thermo Scientific) with the heater off and the vacuum pump refrigeration on. Samples were re-suspended with 80 μL distilled water, flash frozen, and stored at −80° C. prior to HPLC analysis.
Nucleoside di- and tri-phosphates were separated by isocratic HPLC as described {Moal, 1989}. […]

In the next data set the test system is LRV2. The data set can be described thus: Virus levels in L. major strain 5-ASKH bearing LRV2. The format is cell-based, Leishmania major. The note with it: data not shown. An excerpt:
A second line of inquiry would of course be the development of anti-LRV1 agents with improved potency.

The nature of data set [2]: HPLC test of 2CMA-TP degradation during the RDRP reaction. To be noted: 1 hr incubation, 300 μM, n=3. The format is physicochemical. The protocol:
Incubation of the three LRV1 populations with 2CMA-TP reduced synthesis of both the full-length and small RDRP products (FIG. 22A, FIG. 22B, FIG. 23A, FIG. 23B, and FIG. 24). The synthesis of each product was quantitated and normalized to that obtained with drug-free controls, from which IC50s were calculated (Table 3). […] We were concerned that this arose artificially from 2CMA-TP degradation during the assay.
To study inhibition of the viral RDRP by 2CMA-TP, varying amounts of the compound were added to standard RDRP reaction mixtures. 2CMA-TP was custom synthesized by Jena Bioscience, and its identity was confirmed using electrospray ionization with a Fourier-transform mass spectrometer in negative ion mode (Thermo Scientific). The stock concentration of 2CMA-TP was calculated by UV absorption at 260 nm, assuming that its molar extinction coefficient was identical to ATP. To measure the amount of 2CMA-TP which is non-specifically hydrolyzed over the course of an RDRP reaction, mock reactions were run using LRV1− gradient fractions, cold UTP, and 300 μM 2CMA-TP. The 20-μL reactions were diluted to 80 μL with distilled water and immediately analyzed by HPLC as described below.

Take `C[C@@]1(O)[C@H](O)[C@@H](COP(=O)(O)OP(=O)(O)OP(=O)(O)O)O[C@H]1n1cnc2c(N)ncnc21` [Compound 2CMA-TP, 2′-C-methyladenosine triphosphate]: the “Intracellular 2CMA-TP concentration” value in data set [1] (1 μM external 2CMA) was 78 ± 9.0 µM and 80 µM; in data set [1] (3 μM external 2CMA), 152 ± 43 µM; in data set [1] (10 μM external 2CMA), 410 ± 110 µM and 410 µM. Also, the “Accumulated 2CMA-TP retained” value in data set [1] (4 hours in drug-free medium after 18 hours in 10 μM 2CMA) is listed as “approximately 50%”. The “Intrinsic 8 hour 2CMA-TP concentration” value in data set [1] (8 hours in drug-free medium, corrected for population growth) amounted to 230 ± 130 µM. In data set [1] (8 hours in drug-free medium, not corrected for parasite replication), the “Average 2CMA-TP concentration after washout” value is 170 ± 100 µM. Also, the “Inhibition of LRV2 virus levels, in words” value in the data set on LRV2 is “no inhibition of virus levels”. Further, the “2CMA-TP degraded (to apparent 2CMA-DP) during the assay” value in data set [2] was 3.7±0.6%.
